Key:
[1] = biological target: T1, Aat (recombinant His-tagged aminotransferase) (Pediococcus acidilactici, UniProt E0NE36); assay: coupled assay, glutamate formed measured with glutamate dehydrogenase/diaphorase; format: biochemical; conditions: amino donor; 5 mM amino acid, 10 mM alpha-ketoglutarate, 50 uM pyridoxal 5-phosphate, pH 5.5, 37 °C
T1 construct: gene aspC; full length, C-terminal His tag (pEXP5-CT/TOPO), E. coli BL21(DE3), Ni-TED purified; gene about 1200 bp; cloning primers translate to N-terminus MSDKVNA and native C-terminus LKAKRA; locus tag contradictory: primers designed for GBO44_RS03485 in Methods, GBO44_RS04865 in Results
T1 sequence (E0NE36 1-394): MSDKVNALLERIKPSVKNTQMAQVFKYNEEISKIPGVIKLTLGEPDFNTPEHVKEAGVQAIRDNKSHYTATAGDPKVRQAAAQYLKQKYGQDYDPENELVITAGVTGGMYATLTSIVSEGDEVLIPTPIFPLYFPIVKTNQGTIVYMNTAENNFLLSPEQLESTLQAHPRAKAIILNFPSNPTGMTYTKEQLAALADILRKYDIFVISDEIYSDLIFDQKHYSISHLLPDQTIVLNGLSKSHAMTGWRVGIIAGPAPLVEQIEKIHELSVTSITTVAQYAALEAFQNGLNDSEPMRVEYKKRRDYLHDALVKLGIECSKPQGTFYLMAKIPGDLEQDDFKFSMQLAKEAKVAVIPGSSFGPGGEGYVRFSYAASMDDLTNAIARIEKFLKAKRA

[2] = biological target: T1, Aat (recombinant His-tagged aminotransferase); assay: HPLC of amino acids formed; format: biochemical; conditions: amino acceptor; leucine, AABA or alanine as amino donor, 50 uM pyridoxal 5-phosphate, pH 5.5, 37 °C, 1 h

Compound | coupled assay, glutamate formed measured with glutamate dehydrogenase/diaphorase [1] | HPLC of amino acids formed [2]
CC(C)C[C@H](N)C(=O)O [Leu, L-leucine] | the enzyme transferred the amino group from leucine, methionine, AABA, alanine, cysteine, and phenylalanine | 
CCC(=O)C(=O)O [AKB, α-ketobutyrate] |  | AKB, pyruvate, KMTB, KIC, and PPA significantly preferred amino group acceptors to AKG
